From patent US10980889B1 (Revolution Medicines, Inc., priority 2018, dated 2021)
Where two headings read alike, the source gives them in different places.

What was measured:
Details in all cases: Homo sapiens, 4 h, two to four hours at 37° C.
P-P70S6K (T389) = experiment: Cell based AlphaLISA assay, inhibition of P-P70S6K (T389) in MDA-MB-468 cells (mTORC1 substrate)
Outline: (§1)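 In MDA-MB-468 cells, phosphorylation of 4EBP1 (Thr37/46), P70S6K (Thr389) and AKT (Ser473) was measured after incubation with inhibitor by AlphaLISA SureFire Ultra on cell lysates, in duplicate. IC50 values came from control-normalized concentration-response regression.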

P-Akt (S473) = experiment: Cell based AlphaLISA assay, inhibition of P-Akt (S473) in MDA-MB-468 cells (mTORC2 substrate)
Outline: as §1

P-4E-BP1 (T37/46) = experiment: Cell based AlphaLISA assay, inhibition of P-4E-BP1 (T37/46) in MDA-MB-468 cells (mTORC1 substrate)
Outline: as §1

[1] = AlphaLisa, read-out: pIC50 for Inhibition of mTORC1 and mTORC2 Substrate Phosphorylation p-P70S6K-(T389) (converted)
[2] = AlphaLisa, read-out: pIC50 for Inhibition of mTORC1 and mTORC2 Substrate Phosphorylation p-AKT1/2/3-(S473) (converted)
[3] = AlphaLisa, read-out: pIC50 for Inhibition of mTORC1 and mTORC2 Substrate Phosphorylation P-4E-BP1-(T37/46) (converted)
[4] = AlphaLisa SureFire Ultra, read-out: IC50 for Inhibition of mTORC1 and mTORC2 Substrate Phosphorylation (nM) p-P7056K-(T389)
[5] = AlphaLisa SureFire Ultra, read-out: IC50 for Inhibition of mTORC1 and mTORC2 Substrate Phosphorylation (nM) p-AKT1/2/3-(5473)
[6] = AlphaLisa SureFire Ultra, read-out: IC50 for Inhibition of mTORC1 and mTORC2 Substrate Phosphorylation (nM) p-4E-BP1-(T37/46)

SMILES | IC50 (P-P70S6K (T389); [1]) [nM] | IC50 (P-Akt (S473); [2]) [nM] | IC50 (P-4E-BP1 (T37/46); [3]) [nM] | IC50 (P-P70S6K (T389); [4]) [nM] | IC50 (P-Akt (S473); [5]) [nM] | IC50 (P-4E-BP1 (T37/46); [6]) [nM]
CO[C@H]1C[C@@H]2CC[C@@H](C)[C@@](O)(O2)C(=O)C(=O)N2CCCC[C@H]2C(=O)O[C@H]([C@H](C)C[C@@H]2CC[C@@H](OC(=O)NCc3cnc(N4CCN(C(=O)CCOCCN5CCN(c6ncc(C(=O)N7CCc8cc(Cn9nc(-c%10ccc%11oc(N)nc%11c%10)c%10c(N)ncnc%109)ccc8C7)cn6)CC5)CC4)nc3)[C@H](OC)C2)C[C@H](N=[N+]=[N-])[C@H](C)/C=C(\C)[C@@H](O)[C@@H](OC)C(=O)[C@H](C)C[C@H](C)/C=C/C=C/C=C/1C [Example 137] | < 1 | 3.16 to 31.6 | < 3.16 |  |  | 
CO[C@H]1C[C@@H]2CC[C@@H](C)[C@@](O)(O2)C(=O)C(=O)N2CCCC[C@H]2C(=O)O[C@H]([C@H](C)C[C@@H]2CC[C@@H](OC(=O)NCc3cnc(N4CCN(c5ncc(C(=O)N6CCN(c7ncc(C(=O)NCCCCn8nc(-c9ccc%10oc(N)nc%10c9)c9c(N)ncnc98)cn7)CC6)cn5)CC4)nc3)[C@H](OC)C2)CC(=O)[C@H](C)/C=C(\C)[C@@H](O)[C@@H](OC)C(=O)[C@H](C)C[C@H](C)/C=C/C=C/C=C/1C [Example 138] | < 1 | < 3.16 | < 3.16 |  |  | 
CO[C@H]1C[C@@H]2CC[C@@H](C)[C@@](O)(O2)C(=O)C(=O)N2CCCC[C@H]2C(=O)O[C@H]([C@H](C)C[C@@H]2CC[C@@H](OC(=O)NCc3cnc(N4CCN(c5ncc(C(=O)N6CCN(c7ncc(C(=O)N8CCc9cc(Cn%10nc(-c%11ccc%12oc(N)nc%12c%11)c%11c(N)ncnc%11%10)ccc9C8)cn7)CC6)cn5)CC4)nc3)[C@H](OC)C2)CC(=O)[C@H](C)/C=C(\C)[C@@H](O)[C@@H](OC)C(=O)[C@H](C)C[C@H](C)/C=C/C=C/C=C/1C [Example 139] | < 1 | 31.6 to 1000 | < 3.16 |  |  | 
CO[C@H]1C[C@@H]2CC[C@@H](C)[C@@](O)(O2)C(=O)C(=O)N2CCCC[C@H]2C(=O)O[C@H]([C@H](C)C[C@@H]2CC[C@@H](OC(=O)NCc3cnc(N4CCN(c5ncc(C(=O)N6CCN(c7ncc(C(=O)N8CCc9cc(Cn%10nc(-c%11cnc%12[nH]ccc%12c%11)c%11c(N)ncnc%11%10)ccc9C8)cn7)CC6)cn5)CC4)nc3)[C@H](OC)C2)CC(=O)[C@H](C)/C=C(\C)[C@@H](O)[C@@H](OC)C(=O)[C@H](C)C[C@H](C)/C=C/C=C/C=C/1C [Example 140] | 10 to 1000 | > 1000 | 31.6 to 1000 |  |  | 
CO[C@H]1C[C@@H]2CC[C@@H](C)[C@@](O)(O2)C(=O)C(=O)N2CCCC[C@H]2C(=O)O[C@H]([C@H](C)C[C@@H]2CC[C@@H](OC(=O)N3CCc4nc(N5CCN(c6ncc(C(=O)N7CCN(c8ncc(C(=O)N9CCc%10cc(Cn%11nc(-c%12cnc%13[nH]ccc%13c%12)c%12c(N)ncnc%12%11)ccc%10C9)cn8)CC7)cn6)CC5)ncc4C3)[C@H](OC)C2)CC(=O)[C@H](C)/C=C(\C)[C@@H](O)[C@@H](OC)C(=O)[C@H](C)C[C@H](C)/C=C/C=C/C=C/1C [Example 142] | 1 to 10 | > 1000 | > 1000 |  |  | 
CO[C@H]1C[C@@H]2CC[C@@H](C)[C@@](O)(O2)C(=O)C(=O)N2CCCC[C@H]2C(=O)O[C@H]([C@H](C)C[C@@H]2CC[C@@H](OC(=O)NCCOCCOCCN3CCN(CCOCCOCCOCCOCCC(=O)N4CCc5cc(Cn6nc(-c7ccc8oc(N)nc8c7)c7c(N)ncnc76)ccc5C4)CC3)[C@H](OC)C2)C[C@@H](O)[C@H](C)/C=C(\C)[C@@H](O)[C@@H](OC)C(=O)[C@H](C)C[C@H](C)/C=C/C=C/C=C/1C [Example 143] | < 1 | > 1000 | 3.16 to 31.6 |  |  | 
CO[C@H]1C[C@@H]2CC[C@@H](C)[C@@](O)(O2)C(=O)C(=O)N2CCCC[C@H]2C(=O)O[C@H]([C@H](C)C[C@@H]2CC[C@@H](OC(=O)NCCOCCOCCN3C[C@@H]4C[C@H]3CN4CCOCCOCCOCCOCCC(=O)N3CCc4cc(Cn5nc(-c6ccc7oc(N)nc7c6)c6c(N)ncnc65)ccc4C3)[C@H](OC)C2)C[C@@H](O)[C@H](C)/C=C(\C)[C@@H](O)[C@@H](OC)C(=O)[C@H](C)C[C@H](C)/C=C/C=C/C=C/1C [Example 144] | < 1 | 3.16 to 31.6 | < 3.16 |  |  | 
CC(C)n1nc(-c2ccc3oc(N)nc3c2)c2c(N)ncnc21 [MLN-128, reference compound] |  |  |  | 1.4 | 3.7 | 16
CO[C@H]1C[C@@H]2CC[C@@H](C)[C@@](O)(O2)C(=O)C(=O)N2CCCC[C@H]2C(=O)O[C@H]([C@H](C)C[C@@H]2CC[C@@H](O)[C@H](OC)C2)CC(=O)[C@H](C)/C=C(\C)[C@@H](O)[C@@H](OC)C(=O)[C@H](C)C[C@H](C)/C=C/C=C/C=C/1C [Rapamycin, (3S,6R,7E,9R,10R,12R,14S,15E,17E,19E,21S,23S,26R,27R,34aS)-9,10,12,13,14,21,22,23,24,25,26,27,32,33,34,34a-hexadecahydro-9,27-dihydroxy-3-[(1R)-2-[(1S,3R,4R)-4-hydroxy-3-methoxycyclohexyl]-1-methylethyl]-10,21-dimethoxy-6,8,12,14,20,26-hexamethyl-23,27-epoxy-3H-pyrido[2,1-c][1,4]-oxaazacyclohentriacontine-1,5,11,28,29(4H,6H,31H)-pentone, reference compound] |  |  |  | 0.2 | > 1000 | > 1000
